In PMC4076210, “Discovery of Novel AKT Inhibitors with Enhanced Anti-Tumor Effects in Combination with the MEK Inhibitor” (PLoS ONE, 2014) one finds inhibition data, which are given here for two compounds.

Common to all, as to test: Kinase panel
Format in all cases: biochemical

In one experiment the target is T1, CHK2(I157T)(h) (Homo sapiens, UniProt O96017, I157T).
T1 construct: purchased Millipore KinaseProfiler

For a further experiment, the target named is T2, GSK3α(h) (Homo sapiens, UniProt P49840).
T2 construct: purchased Millipore KinaseProfiler

Another experiment addresses T3, Haspin(h) (Homo sapiens, UniProt Q8TF76).
T3 construct: purchased Millipore KinaseProfiler
T3 sequence (Q8TF76 1-798): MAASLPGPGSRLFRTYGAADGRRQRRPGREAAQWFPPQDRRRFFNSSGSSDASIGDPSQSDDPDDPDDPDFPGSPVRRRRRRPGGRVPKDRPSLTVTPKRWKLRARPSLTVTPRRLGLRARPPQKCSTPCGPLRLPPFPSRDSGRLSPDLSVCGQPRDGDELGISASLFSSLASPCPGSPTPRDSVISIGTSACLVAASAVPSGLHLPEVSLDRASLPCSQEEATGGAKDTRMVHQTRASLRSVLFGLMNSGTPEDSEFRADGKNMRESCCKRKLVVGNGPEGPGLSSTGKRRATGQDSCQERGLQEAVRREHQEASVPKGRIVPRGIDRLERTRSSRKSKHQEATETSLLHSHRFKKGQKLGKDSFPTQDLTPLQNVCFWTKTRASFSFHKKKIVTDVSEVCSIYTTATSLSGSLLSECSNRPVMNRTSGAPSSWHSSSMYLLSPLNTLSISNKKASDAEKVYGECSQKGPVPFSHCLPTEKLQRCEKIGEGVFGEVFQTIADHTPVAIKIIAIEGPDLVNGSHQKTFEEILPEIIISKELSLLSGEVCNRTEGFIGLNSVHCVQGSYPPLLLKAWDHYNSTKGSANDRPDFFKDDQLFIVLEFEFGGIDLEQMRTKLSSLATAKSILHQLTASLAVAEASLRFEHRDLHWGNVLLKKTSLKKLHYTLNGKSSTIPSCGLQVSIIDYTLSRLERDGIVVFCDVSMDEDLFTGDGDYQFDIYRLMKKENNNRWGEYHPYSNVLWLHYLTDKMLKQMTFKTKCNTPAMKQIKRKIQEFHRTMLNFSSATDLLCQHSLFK

Another experiment concerns the target T4, Mer(h) (Homo sapiens, UniProt Q12866).
T4 construct: purchased Millipore KinaseProfiler
T4 sequence (Q12866 21-999): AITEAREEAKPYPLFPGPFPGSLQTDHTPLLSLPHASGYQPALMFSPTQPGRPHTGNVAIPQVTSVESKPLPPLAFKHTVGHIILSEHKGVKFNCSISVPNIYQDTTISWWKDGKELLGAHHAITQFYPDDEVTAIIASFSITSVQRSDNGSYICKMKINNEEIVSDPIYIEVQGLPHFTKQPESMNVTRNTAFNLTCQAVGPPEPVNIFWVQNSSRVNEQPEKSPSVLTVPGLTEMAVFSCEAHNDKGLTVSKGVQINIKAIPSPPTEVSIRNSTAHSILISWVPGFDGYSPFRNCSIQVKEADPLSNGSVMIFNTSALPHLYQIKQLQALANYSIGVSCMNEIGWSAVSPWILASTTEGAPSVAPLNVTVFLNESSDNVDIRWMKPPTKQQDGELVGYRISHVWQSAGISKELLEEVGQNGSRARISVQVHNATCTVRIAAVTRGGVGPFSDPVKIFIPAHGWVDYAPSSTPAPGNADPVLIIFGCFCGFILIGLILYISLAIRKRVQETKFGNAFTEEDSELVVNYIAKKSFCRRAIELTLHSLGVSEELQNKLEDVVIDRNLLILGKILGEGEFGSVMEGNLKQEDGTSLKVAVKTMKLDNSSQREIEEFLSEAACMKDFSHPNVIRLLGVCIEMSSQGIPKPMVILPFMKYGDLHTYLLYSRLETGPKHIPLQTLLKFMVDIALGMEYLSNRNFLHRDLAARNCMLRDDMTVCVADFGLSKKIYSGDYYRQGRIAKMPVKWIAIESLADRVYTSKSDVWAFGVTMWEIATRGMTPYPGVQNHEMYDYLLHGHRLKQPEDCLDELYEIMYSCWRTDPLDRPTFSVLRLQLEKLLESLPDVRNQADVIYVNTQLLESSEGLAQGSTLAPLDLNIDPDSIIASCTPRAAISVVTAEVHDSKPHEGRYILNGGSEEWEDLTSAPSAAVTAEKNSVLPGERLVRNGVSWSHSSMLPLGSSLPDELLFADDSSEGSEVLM

In a further experiment the target is T5, PKCε(h) (Homo sapiens, UniProt Q02156).
T5 construct: purchased Millipore KinaseProfiler
T5 sequence (Q02156 1-737): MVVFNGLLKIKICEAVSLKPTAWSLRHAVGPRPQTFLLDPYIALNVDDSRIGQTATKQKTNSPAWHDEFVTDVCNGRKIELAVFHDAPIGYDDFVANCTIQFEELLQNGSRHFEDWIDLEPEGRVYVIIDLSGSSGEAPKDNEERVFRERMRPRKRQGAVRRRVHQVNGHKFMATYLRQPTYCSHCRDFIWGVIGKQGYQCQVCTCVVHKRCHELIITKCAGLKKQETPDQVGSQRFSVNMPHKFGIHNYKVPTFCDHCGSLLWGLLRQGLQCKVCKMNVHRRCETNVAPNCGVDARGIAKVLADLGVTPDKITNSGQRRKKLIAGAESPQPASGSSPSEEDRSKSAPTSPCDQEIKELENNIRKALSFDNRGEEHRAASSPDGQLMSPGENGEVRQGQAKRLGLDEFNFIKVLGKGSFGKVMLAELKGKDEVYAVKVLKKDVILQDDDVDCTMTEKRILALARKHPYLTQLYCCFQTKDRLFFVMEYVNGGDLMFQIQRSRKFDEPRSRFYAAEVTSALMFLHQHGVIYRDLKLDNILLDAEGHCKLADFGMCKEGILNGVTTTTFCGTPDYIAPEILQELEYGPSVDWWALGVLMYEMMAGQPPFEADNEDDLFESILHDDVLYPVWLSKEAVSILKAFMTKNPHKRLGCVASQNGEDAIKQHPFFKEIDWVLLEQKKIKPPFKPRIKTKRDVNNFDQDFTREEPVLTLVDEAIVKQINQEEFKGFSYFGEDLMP

Where two headings read alike, the source gives them in different places.

T1 sequence (O96017 whole entry I157T): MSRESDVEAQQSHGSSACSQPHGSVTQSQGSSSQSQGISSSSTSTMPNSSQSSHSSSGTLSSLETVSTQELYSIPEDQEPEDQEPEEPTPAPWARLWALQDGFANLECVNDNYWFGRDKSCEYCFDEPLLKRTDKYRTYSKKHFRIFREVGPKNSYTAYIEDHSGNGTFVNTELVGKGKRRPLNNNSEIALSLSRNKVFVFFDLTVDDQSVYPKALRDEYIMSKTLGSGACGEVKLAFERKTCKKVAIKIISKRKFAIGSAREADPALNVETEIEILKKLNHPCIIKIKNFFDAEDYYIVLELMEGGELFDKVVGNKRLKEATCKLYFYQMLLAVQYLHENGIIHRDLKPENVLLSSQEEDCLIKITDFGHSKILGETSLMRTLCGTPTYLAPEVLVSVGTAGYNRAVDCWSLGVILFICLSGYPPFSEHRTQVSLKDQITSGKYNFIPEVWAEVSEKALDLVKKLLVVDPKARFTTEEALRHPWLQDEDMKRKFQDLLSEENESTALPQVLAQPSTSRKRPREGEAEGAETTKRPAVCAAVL
T2 sequence (P49840 whole entry): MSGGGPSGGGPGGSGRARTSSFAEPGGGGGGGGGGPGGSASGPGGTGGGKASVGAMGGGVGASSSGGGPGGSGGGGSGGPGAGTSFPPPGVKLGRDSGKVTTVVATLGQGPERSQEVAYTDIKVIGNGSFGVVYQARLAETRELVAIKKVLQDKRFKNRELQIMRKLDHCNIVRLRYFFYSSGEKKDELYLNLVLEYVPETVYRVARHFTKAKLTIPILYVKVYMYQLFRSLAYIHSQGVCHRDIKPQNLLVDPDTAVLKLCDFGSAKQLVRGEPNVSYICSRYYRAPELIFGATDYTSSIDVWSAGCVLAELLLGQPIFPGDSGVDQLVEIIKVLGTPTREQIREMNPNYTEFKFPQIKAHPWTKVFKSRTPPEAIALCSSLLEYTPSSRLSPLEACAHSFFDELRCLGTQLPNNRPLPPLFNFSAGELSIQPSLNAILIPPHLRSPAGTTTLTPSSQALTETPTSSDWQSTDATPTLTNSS

As to `Cn1ncc(Cl)c1-c1cc(C(=O)N[C@H](CN)Cc2cccc(F)c2)sc1Cl` [GSK2110183], the inhibition at 0.5 µM on CHK2(I157T)(h) is -4%; against GSK3α(h) it was -2%; on Haspin(h), 46%; against Mer(h), 2%; at PKCε(h) it was 19%. The inhibition at 10 µM is 0% against CHK2(I157T)(h); -1% against GSK3α(h); 90% against Haspin(h); 65% on Mer(h); 80% against PKCε(h).

Turning to `Cn1ncc(Cl)c1-c1cc(C(=O)N[C@H](CN)Cc2ccc(F)c(F)c2)oc1Cl` [GSK2141795], the inhibition at 0.5 µM on CHK2(I157T)(h) (0.5 µM, read-out: % Inhibition) was 55%; on GSK3α(h) (0.5 µM, read-out: % Inhibition), -26%; on Haspin(h) (0.5 µM, read-out: % Inhibition), 76%; on Mer(h) (0.5 µM, read-out: % Inhibition), 10%; at PKCε(h) (0.5 µM, read-out: % Inhibition), 32%. Moreover, the inhibition at 10 µM on CHK2(I157T)(h) (10 µM, read-out: % Inhibition) was 88%; at GSK3α(h) (10 µM, read-out: % Inhibition) it was -19%; on Haspin(h) (10 µM, read-out: % Inhibition) it was 101%; on Mer(h) (10 µM, read-out: % Inhibition), 63%; at PKCε(h) (10 µM, read-out: % Inhibition), 81%.
